pIC50: −log10 of the molar value.
What was measured:
Caki-2 cells = experiment: CTG (CellTiter-Glo) cell viability assay, Caki-2; type: cell-based; conditions: Homo sapiens, CAKI-2, 72 h, Caki-2, 3-day; read-out: CTG Chempartner/PHA- Caki-2 3-day: Average external-IC50
Procedure: (§1) Compound-mediated viability effect on MOLT-4 and Caki-2 was quantitatively determined using the CellTiter-Glo® Luminescent Cell Viability Assay kit from Promega (Catalog number G7570) following manufacturer's recommended procedures. Briefly, MOLT-4 and Caki-2 cells were seeded into 384 well plates (Grenier Bio-One, Catalog number 781080) with a density of 10,000 cells per well. Compounds were then added to the assay plate with final top concentration of 10 µM and 1:3 dilution series with total of 9 doses. The final DMSO concentration is normalized to 0.2%. The assay plates were incubated at 37° C. for 3 days under 5% CO2. Then the assay plate was equilibrated at room temperature for 10 minutes. To determine cell viability, 30 uL CellTiter Glo reagent was added to each well and the assay plate was centrifuged at 1000 rpm for 30 second, incubated at room temperature for 10 min, and analyzed by detecting the luminescence using a multimode plate reader (EnVision 2105, PerkinElmer). The data was then analyzed by software Prism 7.0 from GraphPad and the dose response curves are fit using a three-parameter logistic equation to calculate IC50.
(§2) The letter codes for MOLT-4 IC50 include: A (<0.1 μM); B (0.1-1.0 μM); C (>1.0-3.0 μM); and D (>3.0 μM). The letter codes for Caki-2 IC50 include: A (<5 μM); B (5-10 μM); C (>10-30.0 μM); and D (>30.0 μM).

MOLT-4 cells = experiment: CTG (CellTiter-Glo) cell viability assay, MOLT-4; type: cell-based; conditions: Homo sapiens, MOLT-4, 72 h, MOLT-4, 3 day; read-out: CTG Cell Viability Assay - MOLT-4 3 day: Average external-IC50
Procedure: as §1, §2

pIC50 (MOLT-4 cells)	Structure (SMILES)	pIC50 (Caki-2 cells)
< 5.52	Cc1ncsc1-c1ccc([C@H](C)NC(=O)[C@@H]2C[C@@H](O)CN2C(=O)[C@@H](NC(=O)CCCCCC(=O)N(C)CCCNc2ccc(S(=O)(=O)NC(=O)c3ccc(N4CCN(Cc5ccccc5-c5ccc(Cl)cc5)CC4)cc3Oc3cnc4[nH]ccc4c3)cc2S(=O)(=O)C(F)(F)F)C(C)(C)C)cc1 [I-61]	< 4.52
< 5.52	Cc1ncsc1-c1ccc([C@H](C)NC(=O)[C@@H]2C[C@@H](O)CN2C(=O)[C@@H](NC(=O)CCCCCC(=O)N2CCN(CC[C@H](CSc3ccccc3)Nc3ccc(S(=O)(=O)NC(=O)c4ccc(N5CC6CN(C)CC6C5)cc4)cc3S(=O)(=O)C(F)(F)F)CC2)C(C)(C)C)cc1 (stereo partly drawn) [I-47]	< 4.52
< 5.52	Cc1ncsc1-c1ccc([C@H](C)NC(=O)[C@@H]2C[C@@H](O)CN2C(=O)[C@@H](NC(=O)CCCCCCCCC(=O)NCc2ccc(-c3ccc(Cl)cc3)c(CN3CCN(c4ccc(C(=O)NS(=O)(=O)c5ccc(N[C@H](CCN(C)C)CSc6ccccc6)c([N+](=O)[O-])c5)cc4)CC3)c2)C(C)(C)C)cc1 [I-20]	< 4.52
< 5.52	Cc1ncsc1-c1ccc([C@H](C)NC(=O)[C@@H]2C[C@@H](O)CN2C(=O)[C@@H](NC(=O)C2CCN(C3CCN(CCCNc4ccc(S(=O)(=O)NC(=O)c5ccc(N6CCN(CC7=C(c8ccc(Cl)cc8)CC(C)(C)CC7)CC6)cc5Oc5cnc6[nH]ccc6c5)cc4S(=O)(=O)C(F)(F)F)CC3)CC2)C(C)(C)C)cc1 [I-90]	< 4.52
5.52 to 6.00	Cc1ncsc1-c1ccc([C@H](C)NC(=O)[C@@H]2C[C@@H](O)CN2C(=O)[C@@H](NC(=O)CCCCCC(=O)N(C)CC[C@H](CSc2ccccc2)Nc2ccc(S(=O)(=O)NC(=O)c3ccc(N4CCC(C(O)c5ccccc5-c5ccc(Cl)cc5)CC4)cc3)cc2S(=O)(=O)C(F)(F)F)C(C)(C)C)cc1 (stereo partly drawn) [I-71]	4.52 to 5.00
< 5.52	Cc1ncsc1-c1ccc([C@H](C)NC(=O)[C@@H]2C[C@@H](O)CN2C(=O)[C@@H](NC(=O)CCCCCC(=O)NCCCNc2ccc(S(=O)(=O)NC(=O)c3ccc(N4CCC([C@@H](O)c5ccccc5-c5ccc(Cl)cc5)CC4)cc3Oc3cnc4[nH]ccc4c3)cc2S(=O)(=O)C(F)(F)F)C(C)(C)C)cc1 [I-55]	< 4.52
< 5.52	Cc1ncsc1-c1ccc([C@H](C)NC(=O)[C@@H]2C[C@@H](O)CN2C(=O)[C@@H](NC(=O)CCCCCC(=O)N2CCN(Cc3ccc(-c4ccc(Cl)cc4)c([C@@H](O)C4CCN(c5ccc(C(=O)NS(=O)(=O)c6ccc(NCCCN(C)C)c(S(=O)(=O)C(F)(F)F)c6)c(Oc6cnc7[nH]ccc7c6)c5)CC4)c3)CC2)C(C)(C)C)cc1 [I-112]	< 4.52
< 5.52	Cc1ncsc1-c1ccc([C@H](C)NC(=O)[C@@H]2C[C@@H](O)CN2C(=O)[C@@H](NC(=O)C2CCN(c3ccc(NC(=O)c4ccc(-c5ccc(Cl)cc5)c([C@@H](O)C5CCN(c6ccc(C(=O)NS(=O)(=O)c7ccc(N[C@H](CCN(C)CCO)CSc8ccccc8)c(S(=O)(=O)C(F)(F)F)c7)cc6)CC5)c4)cc3)CC2)C(C)(C)C)cc1 [I-123]	< 4.52
5.52 to 6.00	Cc1ncsc1-c1ccc([C@H](C)NC(=O)[C@@H]2C[C@@H](O)CN2C(=O)[C@@H](NC(=O)CCCCCC(=O)NCC[C@H](CSc2ccccc2)Nc2ccc(S(=O)(=O)NC(=O)c3ccc(N4CCC([C@@H](O)c5ccccc5-c5ccc(Cl)cc5)CC4)cc3)cc2S(=O)(=O)C(F)(F)F)C(C)(C)C)cc1 [I-82]	4.52 to 5.00
< 5.52	Cc1ncsc1-c1ccc([C@H](C)NC(=O)[C@@H]2C[C@@H](O)CN2C(=O)[C@@H](NC(=O)C2CCC3(CC2)CCN(CCCNc2ccc(S(=O)(=O)NC(=O)c4ccc(N5CCN(CC6=C(c7ccc(Cl)cc7)CC(C)(C)CC6)CC5)cc4Oc4cnc5[nH]ccc5c4)cc2S(=O)(=O)C(F)(F)F)CC3)C(C)(C)C)cc1 [I-116]	< 4.52
< 5.52	Cc1ncsc1-c1ccc([C@H](C)NC(=O)[C@@H]2C[C@@H](O)CN2C(=O)[C@@H](NC(=O)CCCCCC(=O)N2CCC(NCCCNc3ccc(S(=O)(=O)NC(=O)c4ccc(N5CCN(CC6=C(c7ccc(Cl)cc7)CC(C)(C)CC6)CC5)cc4Oc4cnc5[nH]ccc5c4)cc3S(=O)(=O)C(F)(F)F)CC2)C(C)(C)C)cc1 [I-87]	< 4.52
6.00 to 7.00	C#Cc1ccc([C@H](C)NC(=O)[C@@H]2C[C@@H](O)CN2C(=O)[C@@H](NC(=O)CCCCCCC(=O)N2CCN(C[C@]3(C)CCC(c4ccc(Cl)cc4)=C(CN4CCN(c5ccc(C(=O)NS(=O)(=O)c6ccc(NCCCN7CCOCC7)c(S(=O)(=O)C(F)(F)F)c6)c(Oc6cnc7[nH]ccc7c6)c5)CC4)C3)CC2)C(C)(C)C)cc1 [I-138]	4.52 to 5.00
< 5.52	Cc1ncsc1-c1ccc([C@H](C)NC(=O)[C@@H]2C[C@@H](O)CN2C(=O)[C@@H](NC(=O)CCCCCNc2ccc(S(=O)(=O)NC(=O)c3ccc(N4CCN(CC5=C(c6ccc(Cl)cc6)CC(C)(C)CC5)CC4)cc3Oc3cnc4[nH]ccc4c3)cc2S(=O)(=O)C(F)(F)F)C(C)(C)C)cc1 [I-80]	< 4.52
< 5.52	Cc1ncsc1-c1ccc([C@H](C)NC(=O)[C@@H]2C[C@@H](O)CN2C(=O)[C@@H](NC(=O)CCCC(=O)N2CCN(CCCNc3ccc(S(=O)(=O)NC(=O)c4ccc(N5CCC([C@@H](O)c6ccccc6-c6ccc(Cl)cc6)CC5)cc4Oc4cnc5[nH]ccc5c4)cc3S(=O)(=O)C(F)(F)F)CC2)C(C)(C)C)cc1 (single isomer, unassigned) [I-59]	< 4.52
< 5.52	Cc1ncsc1-c1ccc([C@H](C)NC(=O)[C@@H]2C[C@@H](O)CN2C(=O)[C@@H](NC(=O)CCCCCC(=O)N2CCN(c3ccc(-c4ccc(Cl)cc4)c(CN4CCN(c5ccc(C(=O)NS(=O)(=O)c6ccc(NCCCN(C)C)c(S(=O)(=O)C(F)(F)F)c6)c(Oc6cnc7[nH]ccc7c6)c5)CC4)c3)CC2)C(C)(C)C)cc1 [I-99]	< 4.52
6.00 to 7.00	Cc1ncsc1-c1ccc([C@H](C)NC(=O)[C@@H]2C[C@@H](O)CN2C(=O)[C@@H](NC(=O)CCCCCC(=O)N[C@H]2CCN(CCCNc3ccc(S(=O)(=O)NC(=O)c4ccc(N5CCN(CC6=C(c7ccc(Cl)cc7)CC(C)(C)CC6)CC5)cc4Oc4cnc5[nH]ccc5c4)cc3S(=O)(=O)C(F)(F)F)C2)C(C)(C)C)cc1 [I-96]	< 4.52
< 5.52	Cc1ncsc1-c1ccc([C@H](C)NC(=O)[C@@H]2C[C@@H](O)CN2C(=O)[C@@H](NC(=O)CCCCCC(=O)N(C)CC[C@H](CSc2ccccc2)Nc2ccc(S(=O)(=O)NC(=O)c3ccc(N4CCC([C@H](O)c5ccccc5-c5ccc(Cl)cc5)CC4)cc3)cc2S(=O)(=O)C(F)(F)F)C(C)(C)C)cc1 [I-73]	< 4.52
6.00 to 7.00	Cc1ncsc1-c1ccc([C@H](C)NC(=O)[C@@H]2C[C@@H](O)CN2C(=O)[C@@H](NC(=O)CCCC(=O)N2CCN(CC[C@H](CSc3ccccc3)Nc3ccc(S(=O)(=O)NC(=O)c4ccc(N5CCC([C@@H](O)c6ccccc6-c6ccc(Cl)cc6)CC5)cc4)cc3S(=O)(=O)C(F)(F)F)CC2)C(C)(C)C)cc1 [I-110]	< 4.52
< 5.52	Cc1ncsc1-c1ccc([C@H](C)NC(=O)[C@@H]2C[C@@H](O)CN2C(=O)[C@@H](NC(=O)CCCCCC(=O)N2CCN(CC[C@H](CSc3ccccc3)Nc3ccc(S(=O)(=O)NC(=O)c4ccc(NC5CC(C)C5)cc4)cc3S(=O)(=O)C(F)(F)F)CC2)C(C)(C)C)cc1 (stereo partly drawn) [I-44]	< 4.52
6.00 to 7.00	Cc1ncsc1-c1ccc([C@H](C)NC(=O)[C@@H]2C[C@@H](O)CN2C(=O)[C@@H](NC(=O)CCCCCN2CCC(CNc3ccc(S(=O)(=O)NC(=O)c4ccc(N5CCN(CC6=C(c7ccc(Cl)cc7)CC(C)(C)CC6)CC5)cc4Oc4cnc5[nH]ccc5c4)cc3S(=O)(=O)C(F)(F)F)CC2)C(C)(C)C)cc1 [I-75]	< 4.52
< 5.52	Cc1ncsc1-c1ccc([C@H](C)NC(=O)[C@@H]2C[C@@H](O)CN2C(=O)[C@@H](NC(=O)CCCCCC(=O)N2CCN(CCCNc3ccc(S(=O)(=O)NC(=O)c4ccc(N5CCC(C)(C)CC5)cc4Oc4cnc5[nH]ccc5c4)cc3S(=O)(=O)C(F)(F)F)CC2)C(C)(C)C)cc1 [I-54]	< 4.52
< 5.52	Cc1ncsc1-c1ccc([C@H](C)NC(=O)[C@@H]2C[C@@H](O)CN2C(=O)[C@@H](NC(=O)CCCCC(=O)N2C[C@H]3C[C@@H]2CN3Cc2ccc(-c3ccc(Cl)cc3)c(CN3CCN(c4ccc(C(=O)NS(=O)(=O)c5ccc(N[C@H](CCN(C)C)CSc6ccccc6)c([N+](=O)[O-])c5)cc4)CC3)c2)C(C)(C)C)cc1 [I-16]	< 4.52
< 5.52	Cc1ncsc1-c1ccc([C@H](C)NC(=O)[C@@H]2C[C@@H](O)CN2C(=O)[C@@H](NC(=O)CCCCCC(=O)NCCCNc2ccc(S(=O)(=O)NC(=O)c3ccc(N4CCC([C@H](O)c5ccccc5-c5ccc(Cl)cc5)CC4)cc3Oc3cnc4[nH]ccc4c3)cc2S(=O)(=O)C(F)(F)F)C(C)(C)C)cc1 [I-56]	< 4.52
< 5.52	Cc1ncsc1-c1ccc([C@H](C)NC(=O)[C@@H]2C[C@@H](O)CN2C(=O)[C@@H](NC(=O)CCCc2ccc(NCCNc3ccc(S(=O)(=O)NC(=O)c4ccc(N5CCN(CC6=C(c7ccc(Cl)cc7)CC(C)(C)CC6)CC5)cc4Oc4cnc5[nH]ccc5c4)cc3S(=O)(=O)C(F)(F)F)cc2)C(C)(C)C)cc1 [I-101]	< 4.52
